Experiment: mn = molality of the nth substance listed, in mol/kg
Details: 100 kPa, Liquid; for speed of sound: Frequency=3 MHz, Sing-around technique in a fixed-path interferometer; for mass density: Vibrating tube method

CC(C)Cc1ccc(C(C)C(=O)[O-])cc1.[Na+] (stereo not given) [sodium ibuprofen] + O
Details | mass density, 288.15 K [kg/m3] | mass density, 293.15 K [kg/m3] | mass density, 298.15 K [kg/m3] | mass density, 303.15 K [kg/m3] | mass density, 308.15 K [kg/m3] | speed of sound, 288.15 K [m/s] | speed of sound, 293.15 K [m/s] | speed of sound, 298.15 K [m/s] | speed of sound, 303.15 K [m/s] | speed of sound, 308.15 K [m/s]
m1 = 0.05 | 1003.2 | 1002.24 | 1001.03 | 999.585 | 997.921 | 1477.5 | 1492.8 | 1506 | 1517.7 | 1527.8
m1 = 0.15 | 1007.46 | 1006.39 | 1005.07 | 1003.52 | 1001.77 | 1496.9 | 1510.7 | 1522.9 | 1533.4 | 1542.4
m1 = 0.25 | 1010.79 | 1009.6 | 1008.17 | 1006.53 | 1004.69 | 1510.2 | 1522.3 | 1533.1 | 1542.4 | 1550.3
m1 = 0.35 | 1015.17 | 1013.83 | 1012.29 | 1010.55 | 1008.62 | 1518.1 | 1529.1 | 1538.9 | 1547.4 | 1554.5

Source: the NIST ThermoML archive (doi:10.1016/j.jct.2016.03.016)
